Experimental data taken from patent publication US11365187B2, “Pesticidally active pyrazole derivatives” (SYNGENTA PARTICIPATIONS AG, priority 2017, dated 2022).
Where two headings read alike, the source gives them in different places.

What was measured:
Assay type in all cases: in vivo
[1] = system: Tetranychus urticae (Two-spotted spider mite); experiment: Tetranychus urticae feeding/contact activity on bean leaf discs; details: foliar, 192 h, read-out: mortality on mixed population (mobile stages)
Experimental: Tetranychus urticae (Two-spotted spider mite): Feeding/contact activity
Bean leaf discs on agar in 24-well microtiter plates were sprayed with aqueous test solutions prepared from 10′000 ppm DMSO stock solutions. After drying the leaf discs were infested with a mite population of mixed ages. The samples were assessed for mortality on mixed population (mobile stages) 8 days after infestation.

[2] = system: Thrips tabaci (Onion thrips); experiment: Thrips tabaci feeding/contact activity on sunflower leaf discs; details: foliar, 144 h
Experimental: Thrips tabaci (Onion thrips): Feeding/Contact activity
Sunflower leaf discs were placed on agar in 24-well microtiter plates and sprayed with aqueous test solutions prepared from 10′000 ppm DMSO stock solutions. After drying the leaf discs were infested with a thrips population of mixed ages. The samples were assessed for mortality 6 days after infestation.

[3] = system: Spodoptera littoralis (Egyptian cotton leaf worm); experiment: Spodoptera littoralis feeding/contact activity on cotton leaf discs; details: foliar, 72 h
Experimental: Spodoptera littoralis (Egyptian cotton leaf worm): Feeding/contact activity
Cotton leaf discs were placed onto agar in 24-well microtiter plates and sprayed with aqueous test solutions prepared from 10′000 ppm DMSO stock solutions. After drying the leaf discs were infested with five L1 larvae. The samples were assessed for mortality 3 days after infestation. […] 2, 3, 4, 5, 6, 7, 8, 9, 10, 11, 12, 13, 14, 15, 16, 17, 18, 19, 20, 21, 22, 23, 24, 25, 26, 27, 28 and 29.

[4] = system: Myzus persicae (Green peach aphid); experiment: Myzus persicae feeding/contact activity on sunflower leaf discs; details: foliar, 144 h
Experimental: Myzus persicae (Green peach aphid): Feeding/Contact activity
Sunflower leaf discs were placed onto agar in a 24-well microtiter plate and sprayed with aqueous test solutions prepared from 10′000 ppm DMSO stock solutions. After drying, the leaf discs were infested with an aphid population of mixed ages. The samples were assessed for mortality 6 days after infestation.

[5] = system: Plutella xylostella (Diamond back moth); experiment: Plutella xylostella feeding/contact activity on artificial diet; details: 120 h
Experimental: Plutella xylostella (Diamond back moth): Feeding/contact activity
24-well microtiter plates with artificial diet were treated with aqueous test solutions prepared from 10′000 ppm DMSO stock solutions by pipetting. After drying, the plates were infested with L2 larvae (10 to 15 per well). The samples were assessed for mortality 5 days after infestation.

[6] = system: Diabrotica balteata (Corn root worm); experiment: Diabrotica balteata (Corn root worm) mortality on sprayed maize sprouts; details: 96 h
Experimental: Diabrotica balteata (Corn root worm):
Maize sprouts placed onto an agar layer in 24-well microtiter plates were treated with aqueous test solutions prepared from 10′000 ppm DMSO stock solutions by spraying. After drying, the plates were infested with L2 larvae (6 to 10 per well). The samples were assessed for mortality 4 days after infestation.

[7] = system: Euschistus heros (Neotropical Brown Stink Bug); experiment: Euschistus heros feeding/contact activity on soybean leaves; details: 120 h
Experimental: Euschistus heros (Neotropical Brown Stink Bug): Feeding/contact activity
Soybean leaves on agar in 24-well microtiter plates were sprayed with aqueous test solutions prepared from 10′000 ppm DMSO stock solutions. After drying the leaves were infested with N2 nymphs. The samples were assessed for mortality 5 days after infestation.

[8] = application rate 200 ppm, mite population of mixed ages, assessed 8 days after infestation
[9] = application rate 200 ppm, thrips population of mixed ages, assessed 6 days after infestation, read-out: mortality
[10] = application rate 200 ppm, L1 larvae, assessed 3 days after infestation, read-out: mortality
[11] = application rate 200 ppm, aphid population of mixed ages, assessed 6 days after infestation, read-out: mortality
[12] = application rate 200 ppm, L2 larvae, assessed 5 days after infestation, read-out: mortality
[13] = application rate 200 ppm, L2 larvae, assessed 4 days after infestation, read-out: mortality
[14] = application rate 200 ppm, N2 nymphs, assessed 5 days after infestation, read-out: mortality

Measured: mortality at 200 ppm

Cn1nc(C(F)(C(F)(F)F)C(F)(F)F)c(OC(F)F)c1-n1cc(-c2ccc(Cl)c(C(=O)NC3(C#N)CC3)c2)cn1 [Example 1, 2-Chloro-N-(1-cyanocyclopropyl)-5-[1-[4-(difluoromethoxy)-2-methyl-5-[1,2,2,2-tetrafluoro-1-(trifluoromethyl)ethyl]pyrazol-3-yl]pyrazol-4-yl]benzamide]
≥ 80%: [1]; [8] | [2]; [9] | [3]; [10] | [4]; [11] | [5]; [12] | [6]; [13] | [7]; [14]

CCN(C(=O)c1cc(-c2cnn(-c3c(OC(F)F)c(C(F)(C(F)(F)F)C(F)(F)F)nn3C)c2)ccc1Cl)C1(C#N)CC1 [Example 3, 2-chloro-N-(1-cyanocyclopropyl)-5-[1-[4-(difluoromethoxy)-2-methyl-5-[1,2,2,2-tetrafluoro-1-(trifluoromethyl)ethyl]pyrazol-3-yl]pyrazol-4-yl]-N-ethyl-benzamide]
≥ 80%: [1]; [8] | [2]; [9] | [3]; [10] | [4]; [11] | [5]; [12] | [6]; [13] | [7]; [14]

CN(C(=O)c1cc(-c2cnn(-c3c(OC(F)F)c(C(F)(C(F)(F)F)C(F)(F)F)nn3C)c2)ccc1Cl)C1(C#N)CC1 [Example 4, 2-chloro-N-(1-cyanocyclopropyl)-5-[1-[4-(difluoromethoxy)-2-methyl-5-[1,2,2,2-tetrafluoro-1-(trifluoromethyl)ethyl]pyrazol-3-yl]pyrazol-4-yl]-N-methyl-benzamide]
≥ 80%: [1]; [8] | [2]; [9] | [3]; [10] | [4]; [11] | [5]; [12] | [6]; [13] | [7]; [14]

CC(=O)N(C(=O)c1cc(-c2cnn(-c3c(OC(F)F)c(C(F)(C(F)(F)F)C(F)(F)F)nn3C)c2)ccc1Cl)C1(C#N)CC1 [Example 12, N-acetyl-2-chloro-N-(1-cyanocyclopropyl)-5-[1-[4-(difluoromethoxy)-2-methyl-5-[1,2,2,2-tetrafluoro-1-(trifluoromethyl)ethyl]pyrazol-3-yl]pyrazol-4-yl]benzamide]
≥ 80%: [1]; [8] | [2]; [9] | [3]; [10] | [4]; [11] | [5]; [12] | [6]; [13] | [7]; [14]

COC(=O)N(C(=O)c1cc(-c2cnn(-c3c(OC(F)F)c(C(F)(C(F)(F)F)C(F)(F)F)nn3C)c2)ccc1Cl)C1(C#N)CC1 [Example 18, methyl N-[2-chloro-5-[1-[4-(difluoromethoxy)-2-methyl-5-[1,2,2,2-tetrafluoro-1-(trifluoromethyl)ethyl]pyrazol-3-yl]pyrazol-4-yl]benzoyl]-N-(1-cyanocyclopropyl)carbamate]
≥ 80%: [1] | [2] | [3] | [4] | [5] | [6] | [7]

Cn1nc(C(F)(C(F)(F)F)C(F)(F)F)c(OC(F)F)c1-n1cc(-c2cnc(Cl)c(C(=O)NC3(C#N)CC3)c2)cn1 [Example 19, 2-chloro-N-(1-cyanocyclopropyl)-5-[1-[4-(difluoromethoxy)-2-methyl-5-[1,2,2,2-tetrafluoro-1-(trifluoromethyl)ethyl]pyrazol-3-yl]pyrazol-4-yl]pyridine-3-carboxamide]
≥ 80%: [1]; [8] | [2]; [9] | [3]; [10] | [4]; [11] | [5]; [12] | [6]; [13] | [7]; [14]

Cn1nc(C(F)(C(F)(F)F)C(F)(F)F)c(OC(F)F)c1-n1cc(-c2ccc(Cl)c(C(=O)N(C(=O)OCCl)C3(C#N)CC3)c2)cn1 [Example 29, chloromethyl N-[2-chloro-5-[1-[4-(difluoromethoxy)-2-methyl-5-[1,2,2,2-tetrafluoro-1-(trifluoromethyl)ethyl]pyrazol-3-yl]pyrazol-4-yl]benzoyl]-N-(1-cyanocyclopropyl)carbamate]
≥ 80%: [1] | [3] | [4] | [5] | [7]
